Laboratory results taken from US10669272B2, “Substituted naphthyridinone compounds useful as T cell activators” (BRISTOL-MYERS SQUIBB COMPANY, priority 2018, dated 2020).
Like-named read-outs stand apart in the source and are kept apart here.

Experiments:
naïve human CD8 T cells = experiment: Human CD8 T cells IFN-γ assay; type: cell-based; details: normalized to 3 μM reference compound with anti-CD3 plus anti-CD28 as 100% activation, read-out: HuCD8 INFG Normalized EC50;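 note: Naïve human CD8 T cells stimulated with plate-bound anti-CD3 and soluble anti-CD28, IFN-γ in supernatant quantified by AlphaLISA and converted to pg/mL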
[1] = test system: OT-1 CD8+ T cells with SIINFEKL-loaded MC38 tumor cells; experiment: Murine cytotoxic T lymphocyte assay (IFN-γ, OT-1 CTL with MC38 tumor cells); type: cell-based, mouse; details: read-out: msCTL INFg IC50
Method in brief: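 IFN-γ was quantified by AlphaLISA in supernatants after 24 h co-culture at 37° C. Effectors were OT-1 CD8+ CTLs (5-day peptide/mIL2 expansion), exposed 1 h to DGK inhibitors before mixing 1:10 with MC38 tumor cells loaded 3 h with 1 μg/mL SIINFEKL peptide.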

Human venous whole blood = experiment: Human whole blood IFN-γ assay; type: cell-based; details: human whole blood, normalized to 3 μM reference compound with anti-CD3 plus anti-CD28 as 100% activation, read-out: INFg Whole Blood Normalized Agonist EC50;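 note: blood from healthy donors exposed to compound for 1 h before stimulation with anti-CD3 and anti-CD28 at 1 µg/mL each, IFN-γ quantified in supernatant by AlphaLISA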
human DGKζ = target: T1, human DGKζ (Homo sapiens, UniProt Q13574); experiment: DGKζ LIPGLO assay (extruded liposome substrate), in vitro DGK inhibition; type: biochemical; details: liposome (LIPGLO) assay; read-out: DGKz LIPGLO IC50
T1 construct: TVMV protease cleavage site (C); Hexa-His (C); made in house; host or cells: Sf9 insect cells (baculovirus, Bac-to-Bac)
T1 sequence (Q13574 with tags, fused parts or gaps isoform Q13574-4): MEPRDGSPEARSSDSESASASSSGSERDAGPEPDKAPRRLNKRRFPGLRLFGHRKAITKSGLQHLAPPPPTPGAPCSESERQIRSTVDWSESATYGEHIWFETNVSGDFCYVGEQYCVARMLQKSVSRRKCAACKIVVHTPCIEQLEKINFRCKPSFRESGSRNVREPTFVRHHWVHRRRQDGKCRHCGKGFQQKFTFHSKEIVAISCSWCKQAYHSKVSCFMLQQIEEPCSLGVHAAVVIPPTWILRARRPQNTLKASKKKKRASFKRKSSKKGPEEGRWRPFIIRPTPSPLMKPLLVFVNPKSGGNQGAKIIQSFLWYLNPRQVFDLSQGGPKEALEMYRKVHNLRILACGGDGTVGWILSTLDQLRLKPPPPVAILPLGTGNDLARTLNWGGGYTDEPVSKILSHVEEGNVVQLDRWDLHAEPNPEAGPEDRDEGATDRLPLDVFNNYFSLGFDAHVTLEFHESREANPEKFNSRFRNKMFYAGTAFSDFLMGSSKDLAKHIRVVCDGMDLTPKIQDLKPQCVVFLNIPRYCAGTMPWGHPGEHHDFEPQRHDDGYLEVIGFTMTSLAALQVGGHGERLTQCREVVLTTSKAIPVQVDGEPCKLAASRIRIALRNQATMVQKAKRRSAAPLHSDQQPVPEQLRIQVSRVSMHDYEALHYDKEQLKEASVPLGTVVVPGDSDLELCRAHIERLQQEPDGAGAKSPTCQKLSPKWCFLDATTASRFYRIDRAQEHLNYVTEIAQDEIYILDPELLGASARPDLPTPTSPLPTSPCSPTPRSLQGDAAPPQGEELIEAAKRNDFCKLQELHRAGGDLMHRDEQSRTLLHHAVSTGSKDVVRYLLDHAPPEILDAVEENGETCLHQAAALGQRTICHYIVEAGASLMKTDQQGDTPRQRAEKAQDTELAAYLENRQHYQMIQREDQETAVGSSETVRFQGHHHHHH

human DGKα = target: T2, human DGKα (Homo sapiens, UniProt P23743); experiment: DGKα LIPGLO assay (extruded liposome substrate), in vitro DGK inhibition; type: biochemical; details: liposome (LIPGLO) assay; read-out: DGKa LIPGLO IC50
T2 construct: TVMV protease cleavage site (C); Hexa-His (C); made in house; host or cells: Sf9 insect cells (baculovirus, Bac-to-Bac)
T2 sequence (P23743 with tags, fused parts or gaps): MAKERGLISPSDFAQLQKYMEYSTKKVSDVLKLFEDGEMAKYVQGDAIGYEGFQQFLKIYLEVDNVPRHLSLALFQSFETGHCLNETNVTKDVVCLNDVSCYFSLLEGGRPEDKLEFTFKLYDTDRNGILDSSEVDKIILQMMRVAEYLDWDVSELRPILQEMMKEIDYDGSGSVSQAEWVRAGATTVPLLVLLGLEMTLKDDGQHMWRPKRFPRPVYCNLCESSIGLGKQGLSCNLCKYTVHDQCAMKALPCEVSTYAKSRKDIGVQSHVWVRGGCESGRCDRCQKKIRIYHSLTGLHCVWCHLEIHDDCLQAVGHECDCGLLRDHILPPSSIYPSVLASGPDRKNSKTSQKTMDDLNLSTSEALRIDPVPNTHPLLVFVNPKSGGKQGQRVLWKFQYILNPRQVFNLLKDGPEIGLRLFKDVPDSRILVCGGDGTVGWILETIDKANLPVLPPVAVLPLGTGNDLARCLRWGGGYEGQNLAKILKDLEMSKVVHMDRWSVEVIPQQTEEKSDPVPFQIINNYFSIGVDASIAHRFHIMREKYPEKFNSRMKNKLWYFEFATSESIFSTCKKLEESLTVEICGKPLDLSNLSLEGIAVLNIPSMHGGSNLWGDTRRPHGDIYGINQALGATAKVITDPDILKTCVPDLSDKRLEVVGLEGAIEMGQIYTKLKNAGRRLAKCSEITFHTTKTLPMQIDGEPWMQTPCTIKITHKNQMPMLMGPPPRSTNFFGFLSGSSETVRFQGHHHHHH

| IC50 (human DGKζ) [µM] | IC50 (human DGKα) [µM] | Compound | EC50 (naïve human CD8 T cells; Homo sapiens, T-cell, 20 h) [µM] | IC50 [1] [µM] | EC50 (Human venous whole blood) [µM] | IC50 ([1]; Mus musculus, MC-38) [µM] | EC50 (Human venous whole blood; Homo sapiens, 24 h) [µM] | EC50 (naïve human CD8 T cells) [µM] |
| --- | --- | --- | --- | --- | --- | --- | --- | --- |
| 16 | 25 | Cn1c(=O)cc(N2CCN(C(c3ccc(F)cc3)c3ccc(F)cc3)C(C(C)(C)F)C2)c2nc(C#N)ccc21 (single isomer, unassigned) [Example 81, 8-(4-(bis(4-fluorophenyl)methyl)-3-(2-fluoropropan-2-yl)piperazin-1-yl)-5-methyl-6-oxo-5,6-dihydro-1,5-naphthyridine-2-carbonitrile] | 1.7 | 0.58 | 8.7 | – | – | – |
| 1.7 | 14 | COC(=O)C1CN(c2cc(=O)n(C)c3ccc(C#N)nc23)CCN1C(c1ccc(Cl)cc1)c1ccc(Cl)cc1 (single isomer, unassigned) [Example 97, methyl 1-(bis(4-chlorophenyl)methyl)-4-(6-cyano-1-methyl-2-oxo-1,2-dihydro-1,5-naphthyridin-4-yl)piperazine-2-carboxylate] | 0.057 | – | 1.7 | 0.096 | – | – |
| 1.5 | 0.6 | C[C@@H]1CN(c2cc(=O)n(C)c3ccc(C#N)nc23)[C@@H](C)CN1Cc1ccc(F)c(F)c1 [Example 291, 8-[(2S,5R)-4-[(3,4-difluorophenyl)methyl]-2,5-dimethylpiperazin-1-yl]-5-methyl-6-oxo-5,6-dihydro-1,5-naphthyridine-2-carbonitrile] | 0.034 | – | – | 0.47 | 1.3 | – |
| 0.77 | 21 | C[C@H]1CN(c2cc(=O)n(C)c3ccc(C#N)nc23)CCN1C(c1ccc(F)cc1)c1ccc(F)cc1 [Example 35, (S)-8-(4-(bis(4-fluorophenyl)methyl)-3-methylpiperazin-1-yl)-5-methyl-6-oxo-5,6-dihydro-1,5-naphthyridine-2-carbonitrile] | 0.061 | – | – | 1.1 | 2.2 | – |
| 77 | 3.2 | CC(C)[C@@H]1CN(c2c(C#N)c(=O)n(C)c3ccc(C#N)nc23)CCN1C(c1ccc(F)cc1)c1ccc(F)cc1 [Example 169, (R)-8-(4-(bis(4-fluorophenyl)methyl)-3-isopropylpiperazin-1-yl)-5-methyl-6-oxo-5,6-dihydro-1,5-naphthyridine-2,7-dicarbonitrile] | 0.44 | – | – | 2.6 | 13 | – |
| 7.2 | 0.35 | COC(=O)C1CN(C(c2ccc(F)cc2)c2ccc(F)cc2)CCN1c1c(C#N)c(=O)n(C)c2ccc(C#N)nc12 (single isomer, unassigned) [Example 117, Methyl 4-(bis(4-fluorophenyl)methyl)-1-(3,6-dicyano-1-methyl-2-oxo-1,2-dihydro-1,5-naphthyridin-4-yl)piperazine-2-carboxylate] | – | 0.27 | 2.5 | – | – | 0.28 |
| 0.64 | 0.17 | C[C@@H]1CN(c2cc(=O)n(C)c3ccc(C#N)nc23)[C@@H](C)CN1C(c1ccc(F)cc1)c1ccc(Cl)cc1 (single isomer, unassigned) [Example 302] | – | 0.024 | – | – | 0.57 | 0.023 |
| 130 | 95 | C[C@@H]1CN(c2c(C3CC3)c(=O)n(C)c3ccc(C#N)nc23)[C@@H](C)CN1C(c1ccc(F)cc1)c1ccc(F)cc1 [Example 20, 8-((2S,5R)-4-(bis(4-fluorophenyl)methyl)-2,5-dimethylpiperazin-1-yl)-7-cyclopropyl-5-methyl-6-oxo-5,6-dihydro-1,5-naphthyridine-2-carbonitrile] | 10 | – | – | 10 | 20 | – |
| 5.5 | 2.9 | Cn1c(=O)cc(N2CCN(C(c3ccc(F)cc3)c3ccc(F)cc3)C(C#N)C2)c2nc(C#N)ccc21 (single isomer, unassigned) [Example 44, 8-(4-(bis(4-fluorophenyl)methyl)-3-cyanopiperazin-1-yl)-5-methyl-6-oxo-5,6-dihydro-1,5-naphthyridine-2-carbonitrile] | 0.46 | – | – | 0.59 | 3.9 | – |
| 0.43 | 0.5 | C[C@@H]1CN(c2c(F)c(=O)n(C)c3ccc(C#N)nc23)CCN1C(c1ccc(F)cc1)c1ccc(F)cc1 [Example 30, (R)-8-(4-(bis(4-fluorophenyl)methyl)-3-methylpiperazin-1-yl)-7-fluoro-5-methyl-6-oxo-5,6-dihydro-1,5-naphthyridine-2-carbonitrile] | 0.43 | – | – | 0.015 | 1.6 | – |
| 0.63 | 1.2 | COC(=O)C1CN(c2cc(=O)n(C)c3ccc(C#N)nc23)CCN1C(c1ccc(F)cc1)c1ccc(F)cc1 (single isomer, unassigned) [Example 40, Methyl 1-(bis(4-fluorophenyl)methyl)-4-(6-cyano-1-methyl-2-oxo-1,2-dihydro-1,5-naphthyridin-4-yl)piperazine-2-carboxylate] | – | 0.071 | 0.78 | – | – | 0.028 |
| 3 | 24 | C[C@@H]1CN(c2c(Cl)c(=O)n(C)c3ccc(C#N)nc23)[C@@H](C)CN1C(c1ccc(Cl)cc1)c1ccc(Cl)cc1 [Example 26, 8-((2S,5R)-4-(bis(4-chlorophenyl)methyl)-2,5-dimethylpiperazin-1-yl)-7-chloro-5-methyl-6-oxo-5,6-dihydro-1,5-naphthyridine-2-carbonitrile] | 2.3 | – | – | 10 | 20 | – |
| 5 | 17 | Cn1c(=O)cc(N2CCN(C(c3ccc(F)cc3)c3ccc(F)cc3)C(CF)C2)c2nc(C#N)ccc21 (centres unmarked) [Example 8, 8-(4-(bis(4-fluorophenyl)methyl)-3-(fluoromethyl)piperazin-1-yl)-5-methyl-6-oxo-5,6-dihydro-1,5-naphthyridine-2-carbonitrile] | 0.23 | – | – | 1 | 14 | – |
| 58 | 7.7 | CC(C)[C@@H]1CN(c2cc(=O)n(C)c3ccc(C#N)nc23)CCN1C(c1ccc(Cl)cc1)c1ccc(Cl)cc1 [Example 167, (R)-8-(4-(bis(4-chlorophenyl)methyl)-3-isopropylpiperazin-1-yl)-5-methyl-6-oxo-5,6-dihydro-1,5-naphthyridine-2-carbonitrile] | 10 | – | – | 10 | 20 | – |
| 2.4 | 7.2 | Cn1c(=O)cc(N2CCN(C(c3ccc(F)cc3)c3ccc(F)cc3)C(C#N)C2)c2nc(C#N)ccc21 (single isomer, unassigned) [Example 45, 8-(4-(bis(4-fluorophenyl)methyl)-3-cyanopiperazin-1-yl)-5-methyl-6-oxo-5,6-dihydro-1,5-naphthyridine-2-carbonitrile] | – | 0.91 | 2.3 | – | – | 0.53 |
| 13 | 240 | Cn1c(=O)cc(N2CCN(C(c3ccc(F)cc3)c3ccc(F)cc3)C(C(=O)OC3CC3)C2)c2nc(C#N)ccc21 (single isomer, unassigned) [Example 106, cyclopropyl 1-(bis(4-fluorophenyl)methyl)-4-(6-cyano-1-methyl-2-oxo-1,2-dihydro-1,5-naphthyridin-4-yl)piperazine-2-carboxylate] | – | 2.9 | – | – | 8.5 | 0.61 |
| 0.68 | 4.3 | COCC1CN(c2cc(=O)n(C)c3ccc(C#N)nc23)CCN1C(c1ccc(F)cc1)c1ccc(F)cc1 (single isomer, unassigned) [Example 93, 8-(4-(bis(4-fluorophenyl)methyl)-3-(methoxymethyl)piperazin-1-yl)-5-methyl-6-oxo-5,6-dihydro-1,5-naphthyridine-2-carbonitrile] | – | 0.081 | 1.4 | – | – | 0.063 |
| 240 | 81 | Cc1cc(C2CN(c3cc(=O)n(C)c4ccc(C#N)nc34)CC(C)N2C(c2ccc(F)cc2)c2ccc(F)cc2)ccn1 (centres unmarked) [Example 84, 8-(4-(bis(4-fluorophenyl)methyl)-3-methyl-5-(2-methylpyridin-4-yl)piperazin-1-yl)-5-methyl-6-oxo-5,6-dihydro-1,5-naphthyridine-2-carbonitrile] | 10 | – | – | 10 | 20 | – |
| 9.7 | 180 | Cn1c(=O)cc(N2CCN(C(c3ccc(F)cc3)c3ccc(F)cc3)C(C(N)=O)C2)c2nc(C#N)ccc21 (single isomer, unassigned) [Example 42, 1-(bis(4-fluorophenyl)methyl)-4-(6-cyano-1-methyl-2-oxo-1,2-dihydro-1,5-naphthyridin-4-yl)piperazine-2-carboxamide] | – | – | – | 2.6 | 3.1 | 0.61 |
